Assay results from patent publication US7256200B2, “Method and composition for potentiating an oplate analgesic” (The Board of Trustees of the University of Illinois, a body …, priority 2003, dated 2007).
“Also recorded” adds a separate entry of the source.

Key:
[1] = tested on: morphine-pelleted rats; test: Morphine antinociceptive tolerance in morphine-pelleted rats, 52° C. warm water tail-flick test; assay type: in vivo, rat
Experimental: Individual groups of eight rats were implanted with i.th. catheters and allowed to recover for 5 to 7 days.
Individual groups of eight rats were implanted with i.th. catheters and allowed to recover for 5 to 7 days. […] KN93 dose-response effect was determined and compared to its effect in inhibiting CaMKII activity.
Male Sprague-Dawley rats (250-350 g) were used in all experiments.
For i.th. drug administration, rats were prepared according to the method described by Sakura et al. (1996). While under isoflurane anesthesia, an 8 cm length of PE10 tubing (32 gauge) was inserted through an incision made in the atlantooccipital membrane to the level of the lumbar enlargement. The catheter then was secured to the musculature at the site of incision, which then was closed. The rats were allowed 5 to 7 days to recover before experiments begin. […] Intrathecally administered substances were dissolved in saline and administered in a volume of 5 μl through a tubing with calibrated length connecting the i.th. catheter with the injection syringe. Progress of the injection was monitored carefully by observing the movement of a small air bubble (1 μl in volume) through the tubing. The catheter was cleared by flushing with 9 μl saline. In all cases, a dye was injected into the cannula at the termination of the experiment to ensure correct i.th. placement.
Briefly, while under isoflurane anesthesia, a 1.5 cm incision was made on the back of the animal. […] These pellets were left for less than 7 days unless otherwise indicated.
Latency to warm water tail withdrawal response was determined in the manner described previously (Wang et al., 2001, Vanderah et al., 2001). The one-third of distal tail was immersed into a water bath maintained at 52° C. […] The data were converted to % MPE (maximal possible effect), defined as 100×(test-control)/(cutoff-control), where control was the predrug observation, test was the postdrug observation, and cutoff was 10 seconds. Dose-response curves were generated over time to determine the time of peak effect, the dose producing 50% MPE (A50), and its confidence intervals (Tallarida et al., 1986).

[2] = tested on: mice; test: Chronic mouse model of opioid tolerance (s.c. 75 mg morphine pellet); assay type: in vivo; settings: FIG. 5
Text: Additional in vivo tests corroborated initial test results showing that administration of a CaMKII inhibitor reduces or eliminates opioid tolerance and dependence. […] Administration of a CaMKII inhibitor, i.e., KN93, effectively reversed the established tolerance to opioids (FIG. 5). The effect of KN93 is dose dependent.

[3] = Acute model of opioid tolerance (single s.c. morphine 100 mg/kg); assay type: in vivo; settings: for prevention of opioid tolerance, acute model: administered simultaneously with morphine 100 mg/kg s.c., FIG. 6
Text: (§1) Acute tolerance and dependence model is a method commonly used by researchers. […] In addition, the CaMKII inhibitor KN93 also was effective in reversing an already-established tolerance or dependence in the model (FIGS. 8 and 9). […] All effects are dose-dependent on the magnitude of inhibition of CaMKII.

[4] = Acute model of opioid dependence (single s.c. morphine 100 mg/kg); assay type: in vivo
Text: as §1

[5] = tested on: PKC; settings: at doses administered; cited from earlier work
[6] = tested on: protein kinase A; settings: at doses administered; cited from earlier work
[7] = tested on: CaMKII; test: Spinal CaMKII activity (pCaMKII Western blot) in morphine-pelleted rats; assay type: in vivo, rat; settings: lumbar spinal cord, morphine vs placebo pelleted rats, two pairs of animals, β-actin control; FIG. 4
Text: The average increase of CaMKII activity from two pairs of animals was 250%.
Briefly, while under isoflurane anesthesia, a 1.5 cm incision was made on the back of the animal. Morphine and placebo pellets were implanted into the subcutaneous space and the incision was closed with wound clips. These pellets were left for less than 7 days unless otherwise indicated.
Rats were sacrificed by carbon dioxide inhalation and decapitated. The spinal column was cut through at the S1/S2 level. A 16-gauge needle was inserted in the sacral vertebral canal, attached to a syringe containing ice-cold saline, and the spinal cord was ejected through the cervical opening. The spinal cord was placed on ice in a glass Petri dish and rapidly dissected using a dissecting microscope. For consistency, the lumbar enlargement corresponding to the L1 to L6 spinal segments was excised and used for all assays. […]
Spinal segments or harvested SH-SY5Y cells were homogenized on ice in RIPA buffer (1% NP-40, 0.5% sodium deoxycholate, 0.1% sodium dodecyl sulfate (SDS), 5 mM EDTA in PBS, pH 7.4) (3 ml/g wet tissue, or 0.6 ml/10 cm dish) in the presence of protease inhibitors (0.05 mg/ml pepstatin, 0.05 mg/ml aprotinin, 0.1 mg/ml phenylmethylsulfonyl fluoride). […] ECL-detected bands were analyzed using a densitometer and. Quantity One analysis program (BioRad, Hercules, Calif.).

[8] = molecular target: CaMKII (Homo sapiens, UniProt Q9UQM7); settings: structural analog of KN93 used as control; cited from earlier work
Sequence of CaMKII (Homo sapiens, UniProt Q9UQM7) (Q9UQM7 whole entry): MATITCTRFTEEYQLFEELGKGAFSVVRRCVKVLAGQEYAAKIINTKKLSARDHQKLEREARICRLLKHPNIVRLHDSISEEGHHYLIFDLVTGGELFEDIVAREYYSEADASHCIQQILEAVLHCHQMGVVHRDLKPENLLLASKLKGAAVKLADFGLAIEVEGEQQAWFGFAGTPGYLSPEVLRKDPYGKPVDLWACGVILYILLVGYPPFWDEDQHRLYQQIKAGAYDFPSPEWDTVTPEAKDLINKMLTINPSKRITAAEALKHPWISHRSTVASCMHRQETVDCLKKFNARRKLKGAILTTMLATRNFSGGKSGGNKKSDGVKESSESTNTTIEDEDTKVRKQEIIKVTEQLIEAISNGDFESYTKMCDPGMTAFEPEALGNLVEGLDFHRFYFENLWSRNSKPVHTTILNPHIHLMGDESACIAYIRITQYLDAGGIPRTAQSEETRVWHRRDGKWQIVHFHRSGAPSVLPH

## COc1ccc(S(=O)(=O)N(CCO)c2ccccc2CN(C)CC=Cc2ccc(Cl)cc2)cc1 [KN93]
[1]; KN93 15 nmol i.th. 15 minutes before i.th. morphine, 45 minutes before tail-flick, p<0.05 vs MS group, FIG. 3
  effect on established morphine antinociceptive tolerance: reversed; also recorded: blocked
[1]; KN93 alone, data not shown
  effect on basal nociception: did not alter
[1]; naïve rats, data not shown
  effect on morphine-antinociception in naïve rats: nor did KN93 affect
[1]; summary of test results
  effect on morphine-induced analgesia: does not affect
[2]; chronic morphine pellet
  effect on established opioid tolerance, chronic model: dose-dependently reverses
[3]
  prevention of opioid tolerance, acute model: prevents opioid tolerance
[3]; already-established tolerance, FIG. 8
  reversal of established opioid tolerance, acute model: dose-dependently reverses
[4]; administered simultaneously with morphine 100 mg/kg s.c., FIG. 7
  prevention of opioid dependence, acute model: dose-dependently prevents
[4]; already-established dependence, FIG. 9
  reversal of established opioid dependence, acute model: dose-dependently reverses
[5]
  inhibition of PKC: does not inhibit
[6]
  inhibition of protein kinase A: does not inhibit

## CN1CC[C@]23c4c5ccc(O)c4O[C@H]2[C@@H](O)C=C[C@H]3[C@H]1C5 [morphine]
[7]
  average increase of CaMKII activity (pCaMKII content): 250%
[1]; two 75 mg morphine pellets s.c., day 5, i.th. morphine 10 μg, 30 minutes, FIG. 3
  antinociceptive effect of acute i.th. morphine in morphine-pelleted vs placebo-pelleted rats: significantly reduced antinociceptive effect
[2]; s.c. 75 mg controlled-release pellet up to seven days
  antinociceptive effects of morphine after chronic morphine treatment: significantly reduced antinociceptive effects

## COc1ccc(S(=O)(=O)Nc2ccccc2CN(C)C/C=C/c2ccc(Cl)cc2)cc1 [KN92]
[3]
  prevention of opioid tolerance, acute model: does not affect opioid tolerance
[8]
  inhibition of CaMKII: does not inhibit
